Assay results reported in patent US6265445A, “Antiarrhythmic compounds” (priority 1997, dated 2001).
Where two headings read alike, the source gives them in different places.

Experiments:
[1] = tested on: isolated right ventricular trabecule of dog heart; test: Extracellular electrophysiological measurements: impulse conduction time and effective refractory period; parameters: species or system mongrel dogs; conditions: for activation at 2 µM / activation at 10 µM: Canis lupus familiaris
Description: Right ventricular trabecules were prepared from the heart of mongrel dogs (weighing 5 to 10 kg each). The surviving heart pieces were placed into an organ bath (37° C.) containing modified Tyrode's nutrient medium and excited by point stimulation with a basal frequency of 1 Hz. Extracellular bipolar platinum electrodes were placed on the surface of the preparations, by means of which the propagation of the superficial potentials were registered; thus, the determination of the time of impulse conduction or the rate of impulse conduction, respectively, and the effective refractory period (ERP) became possible. During our experiments,the frequency of stimulation was temporarily varied from 0.5 Hz up to 3 Hz. The tested compounds were directly added to the organ bath after dilution of the stock solution according to the desired final concentration.

[2] = tested on: Purkinje's fibres isolated from dog heart; test: Intracellular microelectrode technique: action potential parameters, Purkinje's fibres; parameters: species or system mongrel dogs
Description: The method used is essentially in agreement with the method of Papp et al. [J. Cardiovascular Pharmacol. Ther. 1, 287-296 (1996)].
Right ventricular papillary muscle and Purkinje's fibres were prepared from the hearts of mongrel dogs (weighing 5 to 10 kg each). The preparations were placed into an organ bath (37° C.) containing modified Tyrode's nutrient medium. The preparations were excited by a basal frequency of 1 Hz. During the experiments, the frequency of stimulation was varied under broad limits by a computer-guided stimulator. The intracellular action potentials were registered by using glass capillary microelectrodes filled with 3 N potassium chloride solution (standard intracellular microelectrode techniques). The resting potential (RP), the amplitude of the action potential (APA) as well as the duration of the action potential (APD) were measured by using an IBM 386 compatible computer by means of an own-developed software. The compounds under test were directly added into the organ bath after dilution of the stock solutions according to the final concentrations desired. The effects of the compounds were observed after an incubation time of 30 to 40 minutes.

[3] = tested on: dog Purkinje's fibres; test: Effect on early after-depolarization induced by dofetilide and BaCl2; conditions: 2 μM; EAD induced by 1 μM dofetilide and 20 μM BaCl2
Description: An early after-depolarization (EAD) was induced on dog Purkinje's fibres by the simultaneous use of 1 μM dofetilide and 20 μM BaCl2. These EAD-s were abolished by the addition of the compound (2 μM) of Example 15.

[4] = in vivo; conditions: mouse, in vivo
Description: (§1) Determination of the LD50 Value on Mice
(§2) Animal: male CDI mice (starved) weighing 20 to 22 g each at the time of treatment.
(§3) Observation period: 2 weeks.
(§4) Vehicle: 1 to 2% of Tween-80 in distilled water or in physiological saline, respectively.
(§5) Treatment volume 0.1 ml/10 g of body-weight.

[5] = tested on: mice; test: in vivo
Description: as §1, §2, §3, §4, §5

[6] = tested on: occlusion and reperfusion arrhythmias in anaesthetized dogs; test: Occlusion and reperfusion arrhythmias following acute coronary ligation in anaesthetized dogs; assay type: in vivo, mongrel dogs
Description: The method used is essentially in agreement with the method of Vegh et al. [Basic Res. Cardiol. 82, 159-171 (1987)].
Mongrel dogs of both sexes weighing 10 to 20 kg each were anaesthetized by a mixture of chloralose (60 mg/kg) and urethane (200 mg/kg) and the animals were maintained on artificial respiration. After opening the chest, the ramus descendens anterior (LAD) branch of the left coronary artery of heart was prepared from the first main collateral branch and a loose loop from surgical thread was placed around it. During our experiments, the blood pressure of the animal was measured by using a cannule introduced to the left femoral artery and even the standard ECG parameters by using needle electrodes were continuously registered. The arrhythmias were induced by the occlusion for 25 minutes of a loop placed round the LAD. The survival after lethal arrhythmias and frequency of the arrhythmias were registered. The 28 dogs used in the experiments were divided into three groups. The compound of Example 15 was administered in a dose of 1 mg/kg to 8 animals; d-sotalol was given in a dose of 3 mg/kg to 10 animals by a single intravenous injection 10 minutes before compression of the coronary vessel. The control dogs (10 animals) received 5 ml of physiological saline solution in the same manner as the treated animals.
By using this method it can be stated whether the substance investigated would be effective for protection against arrhythmias following the ligation of the coronary artery.

[7] = tested on: arrhythmias following coronary artery occlusion in conscious rats; test: Occlusion arrhythmia following acute coronary artery ligation in conscious rats; assay type: in vivo, male rats
Source text: The method used is essentially in agreement with the method of Lepran et al. [J. Pharmacol. Methods 9, pp. 219-230 (1983)].
During a previous operation, male rats weighing 340 to 360 g each were fitted with a loose surgical thread loop around the left descending coronary vessel, at about 2 mm from its origin. The ends of the loop thread were led out from the chest under the skin, then the surgical wound was closed. After complete recovery from this previous operation (7 to 8 days) acute myocardial ischaemia was induced by contracting the loose ligation in the conscious, freely moving animals. ECG was continuously registered by using bipolar chest electrodes before the ligation of the coronary artery and during the first 15 minutes of ischaemia. The ratio of survivals was determined and the developed arrhythmias were evaluated according to the Lambeth Convention [Walker et al.: Cardiovasc. Res. 22, 447-455 (1988)]. For evaluation of the arrhythmic episodes a score system was also employed by considering the severity of episodes on the basis of a score system from 0 to 6. Both d-sotalol and the substance of Example 15, respectively, were suspended in 1% methylcellulose and administered orally through a gastric sound at 1 hour before the compression of the coronary vessel. The control animals received a treatment with the same volume, i.e. 5 ml/kg of vehicle.

[8] = 1 Hz, read-out: Prolongation (%) of ERP
[9] = 1 Hz, read-out: Prolongation (%) of impulse conduction time
[10] = 3 Hz, read-out: Prolongation (%) of ERP
[11] = 3 Hz, read-out: Prolongation (%) of impulse conduction time
[12] = p.o. 25 mg/kg, first 15 minutes

## Cc1cccc(C)c1OCC(C)N(C)CCc1ccc(NS(C)(=O)=O)cc1.Cl (stereo not shown) [Example 15, N-[4-[2-[N-Methyl-N-[2-(2,6-dimethylphenoxy)-1-methylethyl]amino]ethyl]phenyl]methanesulfonamide hydrochloride]
[1]; [8]
  activation at 2 µM: 11.6%
  activation at 10 µM: 22.8%
[1]; [9]
  activation at 2 µM: 11.1%
  activation at 10 µM: 42%
[1]; [10]
  activation at 2 µM: 13.6%
  activation at 10 µM: 31.3%
[1]; [11]
  activation at 2 µM: 13.4%
  activation at 10 µM: 73.8%
[1]; concentrations of Table 1
  effect on effective refractory period (in words): simultaneous prolongation of the effective refractory period (ERP)
  effect on impulse conduction (in words): significantly prolonged the time of impulse conduction in a frequency-dependent manner
[2]; 2 μM and 5 μM
  effect on APD on Purkinje's fibres (in words): abbreviated APD on Purkinje's fibres of the dog
[2]; 2 μM, N 3
  APA (amplitude of the action potential): 112.7 ± 3.9 mV
  APD50 (time of 50% repolarization): 180.7 ± 14.8 ms
  APD90 (time of 90% repolarization): 400.0 ± 47.4 ms
  MDP (maximal diastolic potential): -81.7 ± 2.4 mV
  Vmax (maximum rate of depolarization): 392.3 ± 23.7 V/s
[2]; 5 μM, 1 Hz, N = 6
  APA: 111.0 ± 2.4 mV
  APD50: 121.3 ms
  APD90: 279.0 mS
  RP: -86.0 ± 2.0 mV
  Vmax: 439.3 V/s
[3]
  effect on early after-depolarization (EAD) (in words): abolished
[4]; ip
  LD50 at 336 h: 170 mg/kg
[4]; po
  LD50 at 336 h: 550 to 650 mg/kg
[5]; i.p.
  cause of death: respiratory paralysis
[5]; i.p. 150 mg/kg
  Mortality: 1/10
[5]; i.p. 175 mg/kg
  Mortality: 7/10
[5]; i.p. 200 mg/kg
  Mortality: 9/10
[5]; p.o.
  cause of death: respiratory paralysis
[5]; p.o. 500 mg/kg
  Mortality: 0/5
[5]; p.o. 600 mg/kg
  Mortality: 2/5
[5]; p.o. 700 mg/kg
  Mortality: 5/5
[6]; 1 mg/kg i.v.
  Complete survival, animals: 7/8
  Complete survival, percent: 87.5%
[6]; 1 mg/kg, versus d-sotalol 3 mg/kg
  protection from arrhythmogenic effects of ligation and reperfusion (in words): protected from the arrhythmogenic effects of ligation and reperfusion of the coronary artery to a higher degree than a dose of 3 mg/kg of d-sotalol
[6]; occlusion, 1 mg/kg i.v.
  ES (extrasystole): 36.6 ± 84.1
  VF (ventricular fibrillation), animals: 1/8
  VF (ventricular fibrillation), percent: 12.5%
  VT (ventricular tachycardia), animals: 1/8
  VT (ventricular tachycardia), percent: 12.5%
[6]; reperfusion, 1 mg/kg i.v.
  VF (ventricular fibrillation), animals: 0/7
  VF (ventricular fibrillation), percent: 0%
[7]; 25 mg/kg, first 15 minutes of myocardial infarction
  heart rate (in words): statistically unchanged
[7]; oral administration
  antiarrhythmic effect (in words): showed an antiarrhythmic effect even after oral administration
[7]; p.o. 25 mg/kg
  Survival 15 minutes: 8/50
  Survival 16 hours: 7/44
[7]; [12]
  Occurrence of arrhythmias: Brady: 2/12
  Occurrence of arrhythmias: Free (no arrhythmia was observed): 3/19
  Occurrence of arrhythmias: Other: 9/56
  Occurrence of arrhythmias: VF: 10/63
  Occurrence of arrhythmias: VT: 12/75
[7]; p.o. 25 mg/kg, score system from 0 to 6
  Arrhythmia Score: 3.94 ± 0.64
